Key:
[1] = molecular target: T1, human α1D adrenergic receptor (Homo sapiens, UniProt P25100); experiment: Binding at human α1D adrenergic receptor; settings: Table 8; read-out: hα1D Ki
T1 construct: host or cells: LM(tk-) cells, line L-α1A
T1 sequence (P25100 1-572): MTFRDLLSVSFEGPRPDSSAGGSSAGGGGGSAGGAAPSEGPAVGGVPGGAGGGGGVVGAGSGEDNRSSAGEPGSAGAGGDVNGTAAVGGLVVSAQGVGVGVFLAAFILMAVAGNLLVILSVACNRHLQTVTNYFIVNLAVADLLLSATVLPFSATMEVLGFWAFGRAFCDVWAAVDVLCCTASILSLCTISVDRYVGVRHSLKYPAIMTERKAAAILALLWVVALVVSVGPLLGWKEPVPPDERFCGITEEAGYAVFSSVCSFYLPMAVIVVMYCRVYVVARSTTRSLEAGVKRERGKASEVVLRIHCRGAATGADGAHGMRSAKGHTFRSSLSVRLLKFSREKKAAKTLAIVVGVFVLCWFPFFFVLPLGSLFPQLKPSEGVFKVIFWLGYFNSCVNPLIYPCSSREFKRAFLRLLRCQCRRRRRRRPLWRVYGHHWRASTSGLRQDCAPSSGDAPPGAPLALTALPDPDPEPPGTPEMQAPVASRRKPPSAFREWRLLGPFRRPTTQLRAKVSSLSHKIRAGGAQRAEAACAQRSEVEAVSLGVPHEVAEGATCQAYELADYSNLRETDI
Source text: α1 Human Adrenergic Receptors: To determine the binding of compounds to human α1 receptors, LM(tk−) cell lines stably transfected with the genes encoding the α1a, α1b, and α1d receptors were used. The nomenclature describing the α1 receptors was changed recently, such that the receptor formerly designated α1a is now designated α1d, and the receptor formerly designated α1c is now designated α1a. The cell lines expressing these receptors were deposited with the ATCC before the nomenclature change and reflect the subtype designations formerly assigned to these receptors. Thus, the cell line expressing the receptor described herein as the α1a receptor was deposited with the ATCC on Sep. […] The cell line expressing receptor described herein as the α1d receptor was deposited with the ATCC on Sep. […] The cell line expressing the α1b receptor is designated L-α1B, and was deposited on Sep.
(§1) The binding affinity (Ki) of these compounds were tested according to the protocols described herein at the following receptors; human α1A, α1B, α1D, α2A, α2B, and α2C adrenergic receptors; human Y1, Y2, Y4, and Y5 receptors; and N-Methyl-D-aspartic acid (NMDA) receptor channels. The binding interactions of these compounds were additionally tested at the norepinephrine (NE) transporter (NE uptake) and serotonin (5-hydroxytryptamine (5HT)) transporter (5HT uptake) according to protocols described herein

[2] = system: distension induced contractions of the rat bladder; experiment: Distension-induced rhythmic contraction (DIRC) model, micturition reflex in anesthetized rats; format: in vivo
Source text: This model is widely considered to be predictive for the actions of drugs to treat human urge incontinence (also refered to as detrusor instability or unstable bladder). Examples of drugs that are active in this model which also are used therapeutically in humans include oxybutynin and baclofen (Morikawa et al, 1992); imipramine and nortriptyline (Pietra et al, 1990); and nifedipine and terodiline (Guarneri et al, 1993).
Female Sprague Dawley rats weighing approximately 300 g were anesthetized with subcutaneous urethane (1.2 g/kg). The trachea was cannulated with PE240 tubing to provide a clear airway throughout the experiment. A midline abdominal incision was made and the left and right ureters were isolated. The ureters were ligated distally (to prevent escape of fluids from the bladder) and cannulated proximally with PE10 tubing. The incision was closed using 4-0 silk sutures, leaving the PE10 lines routed to the exterior for the elimination of urine. The bladder was canulated via the transurethral route using PE50 tubing inserted 2.5 cm beyond the urethral opening. This cannula was secured to the tail using tape and connected to a pressure transducer. To prevent leakage from the bladder, the cannula was tied tightly to the exterior urethral opening using 4-0 silk.
To initiate the micturition reflex, the bladder was first emptied by applying pressure to the lower abdomen, and then filled with normal saline in 100 μl increments (maximum=2 ml) until spontaneous bladder contractions occurred (typically 20-40 mmHg at a rate of one contraction every 2 to 3 minutes. Once a regular rhythm was established, vehicle (saline) or test compounds were administered i.v. to examine their effects on bladder activity. The effect of a compound which inhibited the micturition reflex was expressed as its “disappearance time”, defined as the time between successive bladder contractions in the presence of the test compound minus the time between contractions before compound administration.

[3] = molecular target: T2, human α2C adrenergic receptor (Homo sapiens, UniProt P18825); experiment: Binding at human α2C adrenergic receptor; settings: Table 8; read-out: hα2C Ki
T2 construct: host or cells: LM(tk-) cells, line L-α2C
T2 sequence (P18825 1-462): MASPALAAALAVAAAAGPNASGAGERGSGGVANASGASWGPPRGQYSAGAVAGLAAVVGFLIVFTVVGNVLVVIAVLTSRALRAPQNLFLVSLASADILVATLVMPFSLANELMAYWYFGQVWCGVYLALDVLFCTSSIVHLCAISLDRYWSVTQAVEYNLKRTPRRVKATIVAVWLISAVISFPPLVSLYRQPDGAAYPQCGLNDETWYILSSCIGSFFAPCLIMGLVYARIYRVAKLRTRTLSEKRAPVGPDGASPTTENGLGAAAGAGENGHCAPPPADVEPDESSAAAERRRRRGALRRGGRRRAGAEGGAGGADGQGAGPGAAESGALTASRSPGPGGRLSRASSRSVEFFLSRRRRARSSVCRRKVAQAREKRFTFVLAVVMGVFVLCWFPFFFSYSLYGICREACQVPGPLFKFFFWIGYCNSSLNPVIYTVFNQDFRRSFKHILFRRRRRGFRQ
Source text: α2 Human Adrenergic Receptors: To determine the binding of compounds to human α2 receptors, LM(tk−) cell lines stably transfected with the genes encoding the α2A, α2B, and α2C receptors were used. The cell line expressing the α2A receptor is designated L-α2A, and was deposited on Nov. 6, 1992, under ATCC Accession No. CRL 11180. The cell line expressing the α2B receptor is designated L-NGC-α2B, and was deposited on Oct. 25, 1989, under ATCC Accession No. CRL 10275. The cell line expressing the α2C receptor is designated L-α2C, and was deposited on Nov. 6, 1992, under ATCC Accession No. CRL-11181. Cell lysates were prepared as described herin, and suspended in 25 mM glycyiglycine buffer (pH 7.6 at room temperature). Equilibrium competition binding assay were performed using […] (0.5 nM), and nonspecific binding was determined by incubation with 10 μM phentolamine. The bound radioligand was separated by filtration through GF/B filters using a cell harvester.
as §1

| SMILES | Ki [1] [µM] | inhibition of distention-induced contractions of the rat bladder ([2]; 1 mg/kg, i.v.) | time for which inhibition of bladder activity persisted ([2]; i.v. administration, anesthetized rat (figure legends)) [min] | Ki [3] [µM] |
| --- | --- | --- | --- | --- |
| Cc1nc(NC(=N)N)nc2ccc3ccccc3c12 [Compound 1007A] | 8.58 |  |  |  |
| Cc1cc(NC(=N)N)nc2ccc(Cl)cc12 [Compound 4005A, N-(6-chloro-4-methyl-2-quinolinyl)guanidine] |  | complete inhibition | 35 | 0.765 |

From US20030176314A1, “Compounds for the treatment of pain” (priority 2001, published 2003)
